From ChEMBL document CHEMBL1124129, “Binding of steroids to the progestin and glucocorticoid receptors analyzed by correspondence analysis” (J Med Chem, 1988) come the findings set out here.

Structures are written as SMILES.

This assay addresses T1, Glucocorticoid receptor (Rattus norvegicus) (UniProt P06536).
T1 sequence (whole entry): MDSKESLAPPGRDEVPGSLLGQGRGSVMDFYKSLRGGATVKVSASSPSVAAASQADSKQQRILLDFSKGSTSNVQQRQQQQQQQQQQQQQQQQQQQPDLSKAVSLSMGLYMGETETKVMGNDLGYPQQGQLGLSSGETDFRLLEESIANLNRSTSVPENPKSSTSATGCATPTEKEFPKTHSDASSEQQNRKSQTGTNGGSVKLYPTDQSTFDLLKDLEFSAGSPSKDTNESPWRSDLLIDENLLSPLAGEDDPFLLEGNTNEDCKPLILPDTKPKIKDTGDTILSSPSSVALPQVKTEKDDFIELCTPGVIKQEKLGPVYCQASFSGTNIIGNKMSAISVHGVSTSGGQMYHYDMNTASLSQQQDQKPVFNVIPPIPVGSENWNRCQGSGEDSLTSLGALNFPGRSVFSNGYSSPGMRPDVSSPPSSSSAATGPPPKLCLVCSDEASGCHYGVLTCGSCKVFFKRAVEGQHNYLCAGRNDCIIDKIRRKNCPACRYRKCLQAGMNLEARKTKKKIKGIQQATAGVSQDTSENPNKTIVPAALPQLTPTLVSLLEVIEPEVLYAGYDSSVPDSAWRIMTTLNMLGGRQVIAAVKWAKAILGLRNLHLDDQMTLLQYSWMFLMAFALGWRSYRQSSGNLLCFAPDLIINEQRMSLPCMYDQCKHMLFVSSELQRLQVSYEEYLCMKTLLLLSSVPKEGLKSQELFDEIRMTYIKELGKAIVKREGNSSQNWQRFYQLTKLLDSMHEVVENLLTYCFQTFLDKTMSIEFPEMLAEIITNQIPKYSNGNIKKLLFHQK
The assay is described as follows: Relative binding affinity to glucocorticoid receptor on cytosol fromt hymus at 4 hr.

In turn, `CC#C[C@]1(O)CCC2C3CCC4=CC(=O)CCC4=C3C(c3cccs3)CC21C` (stereo partly specified) registered an RBA of 270.
